Results published in ChEMBL document CHEMBL1124302, “Nucleoside conjugates. 10. Synthesis and antitumor activity of 1-beta-D-arabinofuranosylcytosine 5'-diphosphate-1,2-dipalmitins” (J Med Chem, 1988).

Legend:
Assay type in all cases: organism-based
[1] = tested on: Mus musculus; assay: Toxicity in mice after 17-35 days at a dose of 400 mg/kg/day; 19/9; details: in vivo
[2] = tested on: Mus musculus; assay: Toxicity in mice after 17-29 days at a dose of 80 mg/kg/day; 21/9.5; details: in vivo
[3] = tested on: Mus musculus; assay: Toxicity in mice after 35->45 days at a dose of 133 mg/kg/day; 45/9.5; details: in vivo, 1080 h
[4] = tested on: Mus musculus; assay: Toxicity in mice after 8->45 days at a dose of 300 mg/kg/day; 45/9; details: in vivo, 1080 h
[5] = tested on: Mus musculus; assay: Toxicity in mice after 29->45 days at a dose of 60 mg/kg/day; 45/9; details: in vivo, 1080 h
[6] = tested on: Mus musculus; assay: Toxicity in mice after 9-11 days at a dose of 200 mg/kg/day; 10/9.5; details: in vivo
[7] = tested on: Mus musculus; assay: Toxicity in mice after 7-14 days at a dose of 100 mg/kg/day; 11/9.5; details: in vivo
[8] = tested on: Mus musculus; assay: Toxicity in mice after 10 days at a dose of 95 and 190 mg/kg/day; 10/9.5; details: in vivo, 240 h
[9] = tested on: Mus musculus; assay: Toxicity in mice after 11-12 days at a dose of 19 and 38 mg/kg/day; 11/9.5; details: in vivo
[10] = tested on: Mus musculus; assay: Toxicity in mice after 14-45 days at a dose of 100 mg/kg/day; 37.5/9; details: in vivo
[11] = tested on: Mus musculus; assay: Toxicity in mice after 32->45 days at a dose of 400 mg/kg/day; 45/9; details: in vivo, 1080 h
[12] = tested on: Mus musculus; assay: Toxicity in mice after 15-45 days at a dose of 60 mg/kg/day; 30/9; details: in vivo
[13] = tested on: Mus musculus; assay: Toxicity in mice after 13-15 days at a dose of 60 mg/kg/day; 14/8.5; details: in vivo
[14] = tested on: Mus musculus; assay: Toxicity in mice after 7 days at a dose of 200 mg/kg/day; 7/9; details: in vivo, 168 h
[15] = tested on: Mus musculus; assay: Toxicity in mice after 7-8 days at a dose of 100 mg/kg/day; 7/9; details: in vivo
[16] = tested on: Mus musculus; assay: Toxicity in mice after 9-12 days at a dose of 200 mg/kg/day; 10.5/9.5; details: in vivo
[17] = tested on: Mus musculus; assay: Toxicity in mice after 7-8 days at a dose of 200 mg/kg/day; 8/9; details: in vivo
[18] = tested on: Mus musculus; assay: Toxicity in mice after 17-21 days at a dose of 60 mg/kg/day; 21/8.5; details: in vivo
[19] = tested on: Mus musculus; assay: Toxicity in mice after 12-13 days at a dose of 100 mg/kg/day; 12/8; details: in vivo
[20] = tested on: Mus musculus; assay: Toxicity in mice after 15-18 days at a dose of 60 mg/kg/day; 15.5/8.5; details: in vivo

CCCCCCCCCCCCCCCC(=O)OC[C@@H](COP(=O)(O)OP(=O)(O)OC[C@H]1O[C@@H](n2ccc(N)nc2=O)[C@@H](O)[C@@H]1O)OC(=O)CCCCCCCCCCCCCCC
median survival time [1]: 19 days | median survival time [2]: 21 days

CCCCCCCCCCCCCCCC(=O)OC[C@H](COP(=O)(O)OP(=O)(O)OC[C@H]1O[C@@H](n2ccc(N)nc2=O)[C@@H](O)[C@@H]1O)OC(=O)CCCCCCCCCCCCCCC
median survival time [3]: > 45 days | median survival time [4]: > 45 days | median survival time [5]: > 45 days

CCCCCCCCCCCCCCCC(=O)OC[C@H](COP(=O)(O)O)OC(=O)CCCCCCCCCCCCCCC.Nc1ccn([C@@H]2O[C@H](COP(=O)(O)O)[C@@H](O)[C@@H]2O)c(=O)n1
median survival time [6]: 10 days | median survival time [7]: 11 days

CCCCCCCCCCCCCCCC(=O)OC[C@@H](COP(=O)(O)O)OC(=O)CCCCCCCCCCCCCCC.Nc1ccn([C@@H]2O[C@H](COP(=O)(O)O)[C@@H](O)[C@@H]2O)c(=O)n1
median survival time [8]: 10 days | median survival time [9]: 11 days

CCCCCCCCCCCCCCCC(=O)OCC(COP(=O)(O)OP(=O)(O)OC[C@H]1O[C@@H](n2ccc(N)nc2=O)[C@@H](O)[C@@H]1O)OC(=O)CCCCCCCCCCCCCCC (mixture of isomers)
median survival time [10]: 37.5 days | median survival time [11]: > 45 days | median survival time [12]: 30 days

Nc1ccn([C@@H]2O[C@H](CO)[C@@H](O)[C@@H]2O)c(=O)n1 [CYTARABINE]
median survival time [13]: 14 days | median survival time [14]: 7 days | median survival time [15]: 7 days | median survival time [16]: 10.5 days | median survival time [17]: 8 days | median survival time [18]: 21 days | median survival time [19]: 12 days | median survival time [20]: 15.5 days
